Measured values as given in patent US9670190B2, “Pyridinyl and pyrimidinyl sulfonamide derivatives as chemokine receptor modulators” (Allergan, Inc., priority 2013, dated 2017).

Target: T1, CCR2 (Homo sapiens, UniProt P41597)
T1 construct: expressed in transfected cells
Experiment: CCR2 calcium activity assay (FLIPR Tetra) in HEK-Gqi5 cells stably expressing CCR2
Format: cell-based
Details: calcium activity on FLIPR Tetra, chemokine positive control agonist; for IC50: read-out: IC50 (nM), activity at CCR2 receptor
Experimental: HEK-Gqi5 cells stably expressing CCR2 were cultured in DMEM high glucose, 10% FBS, 1% PSA, 400 μg/ml geneticin and 50 μg/ml hygromycin. Appropriate positive control chemokines (MCP-1, MIP1A or RANTES) was used as the positive control agonist for screening compound-induced calcium activity assayed on the FLIPR^Tetra. The drug plates were prepared in 384-well microplates using the EP3 and the MultiPROBE robotic liquid handling systems. Compounds were synthesized and tested for CCR2 activity.

T1 sequence (P41597 whole entry, species assumed): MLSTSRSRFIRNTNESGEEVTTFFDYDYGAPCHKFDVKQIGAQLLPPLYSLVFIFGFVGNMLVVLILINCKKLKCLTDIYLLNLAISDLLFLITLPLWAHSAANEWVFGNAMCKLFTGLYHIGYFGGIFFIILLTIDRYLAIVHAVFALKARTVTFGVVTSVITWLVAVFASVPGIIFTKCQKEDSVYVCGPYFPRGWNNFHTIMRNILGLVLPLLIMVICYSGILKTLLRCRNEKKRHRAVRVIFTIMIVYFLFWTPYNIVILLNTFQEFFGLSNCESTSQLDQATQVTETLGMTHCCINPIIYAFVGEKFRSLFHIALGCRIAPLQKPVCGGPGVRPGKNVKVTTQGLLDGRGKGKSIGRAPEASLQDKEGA

% ANTAGONISM	IC50	SMILES
60%		O=S(=O)(Nc1cc(Cl)cnc1SCc1ccccc1)c1ccc(Cl)s1 [Compound 8, N-[2-(benzylsulfanyl)-5-chloropyridin-3-yl]-5-chlorothiophene-2-sulfonamide]
97%	37 nM	O=S(=O)(Cc1ccccc1)c1ncc(Cl)cc1NS(=O)(=O)c1ccc(Cl)c(Cl)c1 [Compound 9, N-[2-(benzylsulfonyl)-5-chloropyridin-3-yl]-3,4-dichlorobenzenesulfonamide]
87%	119 nM	O=S(=O)(Nc1cc(Cl)cnc1[S+]([O-])Cc1ccccc1)c1ccc(Cl)c(Cl)c1 (centres unmarked) [Compound 10, N-[2-(benzylsulfinyl)-5-chloropyridin-3-yl]-3,4-dichlorobenzenesulfonamide]
89%	263 nM	O=S(=O)(Cc1ccccc1)c1ncc(Cl)cc1NS(=O)(=O)c1ccc(Cl)s1 [Compound 11, N-[2-(benzylsulfonyl)-5-chloropyridin-3-yl]-5-chlorothiophene-2-sulfonamide]
77%		O=S(=O)(Nc1cc(Cl)cnc1[S+]([O-])Cc1ccccc1)c1ccc(Cl)s1 (centres unmarked) [Compound 12, N-[2-(benzylsulfinyl)-5-chloropyridin-3-yl]-5-chlorothiophene-2-sulfonamide]

Second part, the molecule before the results:

SMILES	% ANTAGONISM	IC50
O=S(=O)(Nc1cncnc1SCc1ccccc1)c1cc2ccccc2o1 [Compound 1, N-[4-(benzylsulfanyl)pyrimidin-5-yl]-1-benzofuran-2-sulfonamide]	44%	
O=S(=O)(Cc1ccccc1)c1ncncc1NS(=O)(=O)c1cc2ccccc2o1 [Compound 2, N-[4-(benzylsulfonyl)pyrimidin-5-yl]-1-benzofuran-2-sulfonamide]	101%	135 nM
O=S(=O)(Nc1cncnc1[S+]([O-])Cc1ccccc1)c1cc2ccccc2o1 (centres unmarked) [Compound 3, N-[4-(benzylsulfinyl)pyrimidin-5-yl]-1-benzofuran-2-sulfonamide]	95%	588 nM
O=S(=O)(Nc1ccncc1SCc1ccccc1)c1cc2ccccc2o1 [Compound 4, N-[3-(benzylsulfanyl)pyridin-4-yl]-1-benzofuran-2-sulfonamide]	100%	485 nM
O=S(=O)(Nc1cc[n+]([O-])cc1SCc1ccccc1)c1cc2ccccc2o1 [Compound 5, N-[3-(benzylsulfanyl)-1-oxidopyridin-4-yl]-1-benzofuran-2-sulfonamide]	94%	8 nM
O=S(=O)(Cc1ccccc1)c1cnccc1NS(=O)(=O)c1cc2ccccc2o1 [Compound 6, N-[3-(benzylsulfonyl)pyridin-4-yl]-1-benzofuran-2-sulfonamide]	95%	17 nM
O=S(=O)(Nc1cc(Cl)cnc1SCc1ccccc1)c1ccc(Cl)c(Cl)c1 [Compound 7, N-[2-(benzylsulfanyl)-5-chloropyridin-3-yl]-3,4-dichlorobenzenesulfonamide]	46%	
